# Values quoted from earlier work as cited in publication PMC9520775, “Everolimus pharmacokinetics and exposure-response relationship in Japanese patients with advanced breast cancer” (Frontiers in Pharmacology, 2022).
# Parameters: method as in Miesner et al. (2016)
# Details: kidney cancer patient, 10 mg everolimus, concomitant clarithromycin 500 mg twice daily for 12 days, acute renal failure; ref Miesner et al. (2016); cited from earlier work
smiles,measurement,value
CO[C@H]1C[C@@H]2CC[C@@H](C)[C@@](O)(O2)C(=O)C(=O)N2CCCC[C@H]2C(=O)O[C@H]([C@H](C)C[C@@H]2CC[C@@H](OCCO)[C@H](OC)C2)CC(=O)[C@H](C)/C=C(\C)[C@@H](O)[C@@H](OC)C(=O)[C@H](C)C[C@H](C)/C=C/C=C/C=C/1C [everolimus],trough level of everolimus,110 ng/mL
